Measurements as given in patent EP4631504A1, “COMPOSITION FOR PREVENTION OR TREATMENT OF FABRY'S DISEASE” (Korea Advanced Institute of Science and Technology, priority 2022, dated 2024).
“Also recorded” adds a separate entry of the source. Structures can show the parent of a compound that is named as a salt.

Assays:
Rock2 = Rock2 (Homo sapiens, UniProt O75116); conditions: cited from earlier work
[1] = test system: Fabry disease vascular endothelial cells; assay: Tube formation experiment with ROCK inhibitors; assay type: cell-based, human; conditions: 5 µM
Experimental: [Table 1] ROCK inhibitors used in the first experiment
Second experiment: To confirm whether decreased tube formation in vascular endothelial cells derived from Fabry disease-induced pluripotent stem cells was rescued by treatment with 7 types of ROCK inhibitors (netarsudil, ripasudil, sovesudil, AT13148, AR13503, VX-210, and […]), a tube formation experiment was conducted (Table 2). [Table 2] Types of ROCK inhibitors used in the second experiment
Matrigel was applied to a 96-well plate which was then stored in a 5% CO2 incubator a 37°C for one day. The next day, each ROCK inhibitor was added to each well at various concentrations (5 µM, 1 µM, 0.5 µM, 0.1 µM, 0.05 µM, and 0.01 µM) together with […] VEGF in EGM-2 media.
10,000 vascular endothelial cells per well were applied onto the solidified Matrigel, and after one day, each well was photographed under a microscope. Then, the total tube length was analyzed using Image J to compare the increase and decrease in tube formation.

FD-VECs [2] = assay: Tube-like structure formation assay of FD-VECs; assay type: cell-based, human; conditions: for tube formation ability: 0.5, 1, and 5 µM, versus DMSO control; for optimal concentration: based on tube formation of FD-VECs; for tube formation ability of VECs derived from FD-iPSC lines with distinct GLA mutations: fasudil at 5 µM
Experimental: FD-iPSC lines that were generated from fibroblasts of three FD patients with a GLA variant were used. A wild-type (WT) iPSC line derived from foreskin fibroblasts and a FD1 isogenic iPSC line were used as controls. Human iPSCs (hiPSCs) were maintained in mTeSR1 medium ([…] Technologies, Vancouver, Canada) on culture plates precoated with Corning Matrigel® hESC-Qualified Matrix. The cells were maintained at 37°C in a 5% CO2 incubator. After 7 days of culture, hiPSC colonies were split at a 1:50 ratio using accutase solution (eBioscience, San Diego, CA, USA) and incubated under the same culture conditions for expansion.
Human iPSCs were differentiated into VECs as described previously, with further optimization. Briefly, hiPSCs were transferred to dishes coated with Matrigel® (BD Biosciences, Franklin Lakes, NJ, USA) and cultured for 2 days in mTESR1 medium ([…] Technologies) at 37°C and 5% CO2. Subsequently, the cells were cultured for a further 2 days in VEC medium (RPMI (HyClone, Logan, MI, USA), 1% B27 (Invitrogen, Carlsbad, CA, USA), and penicillin/streptomycin (Invitrogen)) supplemented with 50 ng/mL Activin A (PeproTech, Rocky Hill, NJ, USA) and 20 ng/mL BMP4 (PeproTech), and 3 µM CHIR990921 (Sigma, St. Louis, MO) at 37°C and 5% CO2. Next, the cells were cultured for 3 days in VEC medium containing 50 ng/mL VEGF-A (PeproTech) and 50 ng/mL bFGF, at 37°C and 5% CO2. To differentiate the vascular progenitors into VECs, CD31^+ cells were sorted from the differentiated cells by MACS using CD31^+ Dynabeads (Thermo Fisher Scientific, Waltham, MA, USA). The CD31^+ cells were transferred to gelatin-coated plates and incubated for 3 days in EGM-2 medium (Lonza, Basel, Switzerland) supplemented with 100 ng/mL VEGF-A and 50 ng/mL bFGF, at 37°C and 5% CO2. The culture medium was changed daily. Finally, the vascular progenitors were cultured in EGM-2 medium without growth factors for 4 days with daily medium change.
To screen for clinical compounds that could rescue FD-VEC dysfunction, VECs were seeded onto gelatin-coated 96-well plates (SPL Life Sciences, Pocheon, Korea) at a density of 3 × 10^3 cells/cm^2 and maintained in EGM-2 medium without growth factors for 24 hours. […] Subsequently, it was examined whether FD-VECs treated with each selected compound could form tube-like structures on Matrigel®-coated plates. The tube-like structure forming assay was repeated at least three times using different concentrations of each selected compound (0.5, 1, and 5 µM).
FD-VECs were dissociated after treatment with Accutase (eBioscience) at 37°C for 5 min. Dissociated cells (1 × 10^4) were transferred to Matrigel® matrix (BD Biosciences) in EGM-2 medium supplemented with 100 ng/mL VEGF-A, and then incubated at 37°C and 5% CO2 for 24 hours. Images of the vascular tube-like structures were taken using an inverted microscope (Olympus, Tokyo, Japan). Total tube lengths were measured using ImageJ software, which was freely provided by the […], and its Angiogenesis Analyzer plugin (Carpentier, 2012).

FD-VECs [3] = assay: ROS fluorescence intensity in FD-VECs; assay type: cell-based, human
[4] = test system: FD mice (Gla^-/-/TSP1^Tg); assay: Heat tolerance test (paw withdrawal latency) in FD mice; assay type: in vivo; conditions: oral, 10 or 30 mg/kg/day for 6 months
[5] = test system: Fabry disease mice (Gla^-/-); assay: Echocardiography of Gla^-/- mice after co-administration; assay type: in vivo; conditions: fasudil 30 mg/kg daily oral; enzyme 1 mg/kg i.v. once a week; 6 months
[6] = test system: Fabry disease mice (Gla^-/-); assay: Kidney tissue analysis of Gla^-/- mice after co-administration; assay type: in vivo; conditions: fasudil 30 mg/kg daily oral; enzyme 1 mg/kg i.v. once a week; 6 months
[7] = test system: FD mice (Gla^-/-/TSP1^Tg); assay: Echocardiography of FD mice after oral administration; assay type: in vivo; conditions: 10 or 30 mg/kg/day for 6 months
Text: Therefore, the present inventors hypothesized that Gla^-/- mice expressing human TSP1 (Gla^-/-/TSP1^Tg; hereinafter referred to as FD mice) might be an effective animal model for studying FD-related vasculopathy. […] LVH is known to occur in up to half of males and one-third of females in FD patients (Kampmann C, Linhart A, Baehner F, Palecek T, Wiethoff CM, Miebach E, Whybra C, Gal A, Bultas J, Beck M (2008) Onset and progression of the Anderson-Fabry disease related cardiomyopathy. International Journal of Cardiology 130: 367-73). Thus, the present inventors investigated the cardiac functionality in each mouse group via echocardiography.
To this end, FD-mice (Gla^-/-/TSP1^Tg) were produced by crossing transgenic mice expressing human TSP1 with Gla^-/- mice. The produced mice were then orally administered lomerizine (10 or 30 mg/kg/day) for 6 months (FIG. 18A).

[8] = test system: Fabry disease mice (Gla^-/-); assay: Sweat secretion of Gla^-/- mice after co-administration; assay type: in vivo; conditions: fasudil 30 mg/kg daily oral; enzyme 1 mg/kg i.v. once a week; 6 months
[9] = test system: p-SMAD2, SMAD2, TSP1, KDR, eNOS; assay: Western blot analysis of p-SMAD2, TSP1, KDR and eNOS in FD-VECs; assay type: cell-based, human; conditions: compared to non-treated FD-VECs
[10] = test system: FD mice (Gla^-/-/TSP1^Tg); assay: Immunohistochemistry and Western blot of renal tissues of FD mice; assay type: in vivo; conditions: oral administration; for protein levels of fibrotic and inflammatory markers in renal tissues: Western blot; for CD31+ACTA2+ cells in renal tissues / expression levels of F4/80 and LCN2 in renal tissues / expression of COL1A1 in renal tissues: immunohistochemistry
EndMT of FD-VECs = assay: EndMT-associated factors in FD-VECs (Western blot, immunostaining); assay type: cell-based, human; conditions: for levels of mesenchymal-related markers (COL1A1, ACTA2, SNAI1, and TWIST) / protein level of CD31: Western blot; for fluorescence intensities of EndMT-related factors (ACTA2, SNAI1, COL1A1): immunostaining
Text: Hyperactive SMAD2 signaling induces EndMT in VECs, thereby reducing angiogenic functionality. […] Before drug treatment, the present inventors performed bulk RNA sequencing of FD-VECs and FD(c)-VECs to examine the mechanism underlying the defective vasculopathy of FD-VECs.

FD-VECs [11] = assay: Extracellular flux analysis of oxygen consumption rate (OCR); assay type: cell-based, human
[12] = test system: FD mice (Gla^-/-/TSP1^Tg); assay: Sweat secretion analysis in FD mice; assay type: in vivo; conditions: oral, 10 or 30 mg/kg/day for 6 months
[13] = test system: Fabry disease mice (Gla^-/-); assay: Hot plate test (55°C) of Gla^-/- mice after co-administration; assay type: in vivo; conditions: hot plate 55°C; fasudil 30 mg/kg daily oral; enzyme 1 mg/kg i.v. once a week; 6 months
Experimental: Many Fabry disease patients suffer from peripheral neuropathic pain, and one way to indirectly assess the pain in laboratory animals is to measure the time it takes for the hind limbs to jump on a hot plate at 55°C.

Rock1 = Rock1 (Homo sapiens, UniProt Q13464); conditions: cited from earlier work
Chain of Rock1 (Q13464 whole entry, species assumed): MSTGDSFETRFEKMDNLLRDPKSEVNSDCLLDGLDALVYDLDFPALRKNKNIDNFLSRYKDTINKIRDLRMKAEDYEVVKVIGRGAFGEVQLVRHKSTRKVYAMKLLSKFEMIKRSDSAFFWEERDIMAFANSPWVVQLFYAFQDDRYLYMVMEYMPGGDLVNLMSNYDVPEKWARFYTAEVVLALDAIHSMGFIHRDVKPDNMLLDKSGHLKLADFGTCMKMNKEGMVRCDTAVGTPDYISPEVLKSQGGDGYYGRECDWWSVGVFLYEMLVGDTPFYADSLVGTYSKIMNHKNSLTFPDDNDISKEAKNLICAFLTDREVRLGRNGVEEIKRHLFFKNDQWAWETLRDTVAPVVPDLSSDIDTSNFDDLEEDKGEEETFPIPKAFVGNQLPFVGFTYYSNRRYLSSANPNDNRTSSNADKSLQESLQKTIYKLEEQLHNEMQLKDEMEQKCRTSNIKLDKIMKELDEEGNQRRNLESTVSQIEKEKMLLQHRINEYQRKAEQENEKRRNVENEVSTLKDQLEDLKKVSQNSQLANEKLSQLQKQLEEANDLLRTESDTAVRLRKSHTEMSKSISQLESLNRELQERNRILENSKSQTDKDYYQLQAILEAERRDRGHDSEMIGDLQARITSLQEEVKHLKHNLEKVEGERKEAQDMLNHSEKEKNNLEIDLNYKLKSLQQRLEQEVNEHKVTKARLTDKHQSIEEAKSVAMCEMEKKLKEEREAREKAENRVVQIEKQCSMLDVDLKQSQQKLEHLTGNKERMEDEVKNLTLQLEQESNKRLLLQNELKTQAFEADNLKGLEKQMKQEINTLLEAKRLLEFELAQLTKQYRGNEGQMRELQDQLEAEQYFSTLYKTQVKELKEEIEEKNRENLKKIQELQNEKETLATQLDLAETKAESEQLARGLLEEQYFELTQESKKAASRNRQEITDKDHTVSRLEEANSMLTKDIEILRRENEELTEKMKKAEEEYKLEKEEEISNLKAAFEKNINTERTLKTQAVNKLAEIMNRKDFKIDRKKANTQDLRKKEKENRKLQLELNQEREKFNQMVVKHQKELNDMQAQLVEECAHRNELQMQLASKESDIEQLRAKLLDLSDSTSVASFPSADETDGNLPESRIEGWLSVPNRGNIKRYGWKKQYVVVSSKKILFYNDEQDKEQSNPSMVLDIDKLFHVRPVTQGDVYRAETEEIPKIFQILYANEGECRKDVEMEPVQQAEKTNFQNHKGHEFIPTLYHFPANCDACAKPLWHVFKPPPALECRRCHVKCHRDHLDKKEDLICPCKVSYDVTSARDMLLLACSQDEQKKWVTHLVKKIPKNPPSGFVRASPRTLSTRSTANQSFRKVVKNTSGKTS

Chain of Rock2 (O75116 whole entry, species assumed): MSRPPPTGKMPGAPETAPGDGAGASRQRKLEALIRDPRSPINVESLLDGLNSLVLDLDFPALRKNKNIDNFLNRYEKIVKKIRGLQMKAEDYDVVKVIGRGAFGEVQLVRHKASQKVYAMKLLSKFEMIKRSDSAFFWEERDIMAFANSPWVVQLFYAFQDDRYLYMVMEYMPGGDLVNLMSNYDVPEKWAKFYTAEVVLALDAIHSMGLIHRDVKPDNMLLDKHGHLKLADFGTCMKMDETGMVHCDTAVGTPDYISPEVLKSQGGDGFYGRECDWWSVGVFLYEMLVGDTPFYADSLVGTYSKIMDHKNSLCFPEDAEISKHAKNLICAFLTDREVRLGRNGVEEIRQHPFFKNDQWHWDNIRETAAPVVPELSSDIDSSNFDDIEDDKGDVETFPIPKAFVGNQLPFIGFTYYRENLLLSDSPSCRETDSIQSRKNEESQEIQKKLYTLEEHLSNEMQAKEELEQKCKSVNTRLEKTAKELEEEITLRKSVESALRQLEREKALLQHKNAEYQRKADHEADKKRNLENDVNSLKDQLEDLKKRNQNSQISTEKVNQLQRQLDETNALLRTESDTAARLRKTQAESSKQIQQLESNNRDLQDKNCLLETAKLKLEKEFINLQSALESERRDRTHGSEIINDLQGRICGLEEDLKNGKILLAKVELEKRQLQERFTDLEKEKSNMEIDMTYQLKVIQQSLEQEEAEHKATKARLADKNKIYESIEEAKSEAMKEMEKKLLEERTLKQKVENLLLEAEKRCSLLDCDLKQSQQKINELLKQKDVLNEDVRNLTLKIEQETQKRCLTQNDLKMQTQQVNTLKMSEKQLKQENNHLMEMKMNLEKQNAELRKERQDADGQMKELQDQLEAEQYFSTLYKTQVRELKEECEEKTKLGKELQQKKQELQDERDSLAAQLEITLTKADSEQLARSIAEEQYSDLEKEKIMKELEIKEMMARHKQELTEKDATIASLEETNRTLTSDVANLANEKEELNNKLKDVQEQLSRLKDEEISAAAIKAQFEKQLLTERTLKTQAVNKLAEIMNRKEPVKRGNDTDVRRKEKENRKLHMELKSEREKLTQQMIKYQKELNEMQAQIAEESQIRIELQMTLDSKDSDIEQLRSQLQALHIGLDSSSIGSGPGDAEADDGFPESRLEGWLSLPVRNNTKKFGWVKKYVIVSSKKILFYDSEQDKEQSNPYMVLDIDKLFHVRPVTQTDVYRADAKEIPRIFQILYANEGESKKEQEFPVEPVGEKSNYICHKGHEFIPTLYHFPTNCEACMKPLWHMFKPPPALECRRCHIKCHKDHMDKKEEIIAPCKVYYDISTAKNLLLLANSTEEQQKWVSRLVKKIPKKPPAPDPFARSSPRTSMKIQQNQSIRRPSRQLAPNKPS

NC[C@@H](C(=O)Nc1ccc2cnccc2c1)c1ccc(CO)cc1 [AR-13503]
IC50 (Rock2): 4.2 nM
tube formation ability of Fabry disease vascular endothelial cells [1]: increased the tube formation ability

C[C@H]1CNCCCN1S(=O)(=O)c1cccc2cncc(F)c12 [Ripasudil hydrochloride hydrate]
tube formation ability of Fabry disease vascular endothelial cells [1]: increased the tube formation ability

Cc1c(Cl)cccc1Nc1ccccc1C(=O)O [tolfenamic acid]
tube formation ability (FD-VECs [2]): relatively higher tube formation ability

Netarsudil mesylate
tube formation ability of Fabry disease vascular endothelial cells [1]: increased the tube formation ability

O=S(=O)(c1cccc2cnccc12)N1CCCNCC1 [fasudil]
level of ROS (FD-VECs [3]): reduced the level of ROS to that seen in WT-VECs and FD(c)-VECs
heat insensitivity (paw withdrawal latency) [4]: significantly alleviated
cardiac function [5]: improvement in cardiac function
left ventricular hypertrophy [5]: significant reduction
expression of fibrosis-related marker (COL1A1) and inflammation markers (LCN2 and F4/80) in kidney tissues [6]: reduced
tube length of FD-VECs (FD-VECs [2]; 5 µM, compared to the untreated group): significantly increased
tube formation ability (FD-VECs [2]): relatively higher tube formation ability; also recorded: most effective
optimal concentration (FD-VECs [2]): 5 µM
tube formation ability of VECs derived from FD-iPSC lines with distinct GLA mutations (FD-VECs [2]): enhanced
LV mass/BW [7]: significantly reduced
cardiac ejection fraction, fractional shortening, and cardiac output [7]: enhanced
sweating [8]: reduced
levels of KDR and eNOS [9]: increased
levels of p-SMAD2 and TSP1 [9]: reduced
protein levels of fibrotic and inflammatory markers in renal tissues [10]: confirmed by Western blot analysis
CD31+ACTA2+ cells in renal tissues [10]: reduced
expression levels of F4/80 and LCN2 in renal tissues [10]: reduced
expression of COL1A1 in renal tissues [10]: downregulated
levels of mesenchymal-related markers (COL1A1, ACTA2, SNAI1, and TWIST) (EndMT of FD-VECs): reduced
protein level of CD31 (EndMT of FD-VECs): increased
fluorescence intensities of EndMT-related factors (ACTA2, SNAI1, COL1A1) (EndMT of FD-VECs): reduced
basal respiration, ATP production, or spare capacity (FD-VECs [11]): did not alter
maximal respiration (FD-VECs [11]): partially reduced
anhidrosis (number of sweat spots) [12]: significantly alleviated
latency (time for hind limbs to jump on hot plate) [13]: slight decrease in latency

CC1=C(C(=O)Nc2cc3cn[nH]c3cc2F)C(c2ccc(C(F)(F)F)cc2)CC(=O)N1 (centres unmarked) [GSK429286A]
tube formation ability of Fabry disease vascular endothelial cells [1]: effective in improving the impaired tube formation ability

CCCOC(=O)c1cccc(-c2cc(C(=O)Nc3ccncc3F)ccc2CN)c1 [AMA-0076, Sovesudil]
IC50 (Rock2): 23 nM
IC50 (Rock1): 3.7 nM
tube formation ability of Fabry disease vascular endothelial cells [1]: increased the tube formation ability

NC(=O)c1ccc(-c2nc(-c3ccc4c(c3)OCCO4)c(-c3ccccn3)[nH]2)cc1 [D-4476]
tube formation ability (FD-VECs [2]): relatively higher tube formation ability

NC[C@@](O)(c1ccc(Cl)cc1)c1ccc(-c2cn[nH]c2)cc1 [AT-13148]
IC50 (Rock2): 4 nM
IC50 (Rock1): 6 nM
tube formation ability of Fabry disease vascular endothelial cells [1]: increased the tube formation ability

COc1ccc(CN2CCN(C(c3ccc(F)cc3)c3ccc(F)cc3)CC2)c(OC)c1OC [lomerizine]
level of ROS (FD-VECs [3]): reduced the excess ROS produced in FD-VECs to the same level as that in WT- and FD(c)-VECs
heat insensitivity (paw withdrawal latency) [4]: rescued this phenotype
tube formation ability (FD-VECs [2]): relatively higher tube formation ability
optimal concentration (FD-VECs [2]): 1 µM
tube formation ability of VECs derived from FD-iPSC lines with distinct GLA mutations (FD-VECs [2]): enhanced
total tube length of FD-VECs (FD-VECs [2]; tube formation assay, versus untreated FD-VECs): significantly increased
LV mass/BW [7]: reduced
cardiac ejection fraction, fractional shortening, and cardiac output [7]: significant improvements
levels of KDR and eNOS [9]: increased
levels of p-SMAD2 and TSP1 [9]: reduced
protein levels of fibrotic and inflammatory markers in renal tissues [10]: reduced
CD31+ACTA2+ cells in renal tissues [10]: reduced this increase
expression levels of F4/80 and LCN2 in renal tissues [10]: reduced
expression of COL1A1 in renal tissues [10]: downregulated
levels of mesenchymal-related markers (COL1A1, ACTA2, SNAI1, and TWIST) (EndMT of FD-VECs): reduced
protein level of CD31 (EndMT of FD-VECs): increased
fluorescence intensities of EndMT-related factors (ACTA2, SNAI1, COL1A1) (EndMT of FD-VECs): reduced
maximal respiration (FD-VECs [11]): slight decrease
anhidrosis (number of sweat spots) [12]: rescued this phenotype

C[C@@H](N)c1ccc(C(=O)Nc2ccnc3[nH]ccc23)cc1 [Y39983]
tube formation ability of Fabry disease vascular endothelial cells [1]: effective in improving the impaired tube formation ability

C[C@@H](N)[C@H]1CC[C@H](C(=O)Nc2ccncc2)CC1 [Y27632]
tube formation ability of Fabry disease vascular endothelial cells [1]: effective in improving the impaired tube formation ability

O=C(Nc1ccncc1)c1cc([N+](=O)[O-])ccc1Cl [T0070907]
tube formation ability (FD-VECs [2]): relatively higher tube formation ability

NC(=O)c1ccc(-c2nc(-c3ccc4c(c3)OCO4)c(-c3ccccn3)[nH]2)cc1 [SB431542]
tube formation ability of Fabry disease vascular endothelial cells [1]: increased tube formation ability

CCOC(CN1CCN(CC(C)C(=O)c2ccccc2)CC1)c1ccccc1 (centres unmarked) [eprazinone]
tube formation ability (FD-VECs [2]): relatively higher tube formation ability
